In this assay the target is human PD-L1 / Human PD-1 (Homo sapiens (Human), UniProt Q9NZQ7). Briefly: Enzyme-Linked Immunosorbent Assay (ELISA), PD-1/PD-L1 binding. The note with it: plate-coated human PD-L1, biotinylated human PD-1. Summed up: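 Compound dilutions (1:5 series) competed with 0.3 μg/mL biotin-labelled human PD-1 for PD-L1 immobilised at […], for 1 h at 37 °C. Read-out was A450 after streptavidin-HRP and a 20 min TMB reaction, stopped with 2 N H2SO4.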
Sequence of human PD-L1 / Human PD-1 (Q9NZQ7 19-239): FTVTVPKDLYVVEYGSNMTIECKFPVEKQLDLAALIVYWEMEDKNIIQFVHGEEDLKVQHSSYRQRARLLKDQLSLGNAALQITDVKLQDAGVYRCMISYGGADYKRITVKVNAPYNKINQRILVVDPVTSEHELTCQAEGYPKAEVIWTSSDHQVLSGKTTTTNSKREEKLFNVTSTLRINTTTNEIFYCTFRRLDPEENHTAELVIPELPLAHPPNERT

`CCOc1cc(O[C@@H]2c3cccc(-c4cccc(OCCCN5CC(F)C5)c4Cl)c3C[C@@H]2F)c(Cl)cc1CN[C@@](C)(CO)C(=O)O`: the IC50 was in the range of 5 to 500 nM.

As for `Cc1c(OCCCN2CCC(F)CC2)cccc1-c1cccc2c1CC[C@@H]2Oc1cc(OCc2cc(C#N)cc(C#N)c2)c(CN[C@H]2CCC[C@@H]2O)cc1Cl`, the half-maximal inhibitory concentration (IC50) was < 5 nM.

For the molecule `Cc1c(OCCCN2CCC(C)(O)CC2)cccc1-c1cccc2c1CC[C@@H]2Oc1cc(OCc2cc(C#N)cc(C#N)c2)c(CNC[C@@H]2CCC(=O)N2)cc1Cl`, the IC50 is < 5 nM.

`CC(C)(O)CNCc1cc(Cl)c(O[C@H]2CCc3c(-c4cccc(OCCCN5CC(O)C5)c4Cl)cccc32)cc1OCc1cncc(C#N)c1`: the 50% inhibitory concentration (IC50) was < 5 nM.

The molecule `N#Cc1cncc(COc2cc(O[C@H]3CCc4c(-c5cccc(OCCCN6CCC(F)CC6)c5C(F)(F)F)cccc43)c(Cl)cc2CNCC2CCC(=O)N2)c1` (stereo partly shown) registered an IC50 of 5 to 500 nM.

`Cc1c(OCCCN2CC3(CCC3)C2)cccc1-c1cccc2c1CC[C@@H]2Oc1cc(OCc2cc(C#N)cc(C#N)c2)c(CNC[C@H]2CCC(=O)N2)cc1Cl` had an IC50 of 5 to 500 nM.

As to `Cc1c(OCCCN2CCC(O)CC2)cccc1-c1cccc2c1CC[C@@H]2Oc1cc(OCc2cncc(C#N)c2)c(CN(C)[C@H](C(=O)O)[C@@H](C)O)cc1Cl`, the IC50 is < 5 nM.

As to `Cc1c(OCCCN2CCC(F)CC2)cccc1-c1cccc2c1CC[C@@H]2Oc1cc(OCc2cc(C#N)cc(C#N)c2)c(CNC[C@@H]2CCC(=O)N2)cc1Cl`, the half-maximal inhibitory concentration (IC50) is < 5 nM.

For the molecule `CCOC(=O)[C@](C)(CO)NCc1cc(Cl)c(O[C@H]2CCc3c(-c4cccc(OCCCN5CC(O)C5)c4Cl)cccc32)cc1OCc1cncc(C#N)c1`, the IC50 is < 5 nM.

With `N#Cc1cncc(COc2cc(O[C@H]3CCc4c(-c5cccc(OCCCN6CCC6)c5Cl)cccc43)c(Cl)cc2CNC[C@@H]2CCC(=O)N2)c1`, the 50% inhibitory concentration (IC50) was < 5 nM.

`Cc1c(OCCCN2CCC(F)CC2)cccc1-c1cccc2c1CC[C@@H]2Oc1cc(OCc2cc(C#N)cc(C#N)c2)c(CN[C@H]2CCC(=O)NC2)cc1Cl` gave a half-inhibitory concentration (IC50) of 5 to 500 nM.

`CCOc1cc(O[C@H]2CCc3c(-c4cccc(OCCCN5CCC5(C)C)c4C)cccc32)c(Cl)cc1CN1CC[C@@H](C(=O)O)C1` yielded an IC50 of 5 to 500 nM.

`N#Cc1cncc(COc2cc(O[C@H]3CCc4c(-c5cccc(OCCCN6CCC(F)CC6)c5Cl)cccc43)c(Cl)cc2CN2CC[C@@H](F)C2)c1`: the IC50 was < 5 nM.

`Cc1c(OCCCN2CCC(F)CC2)cccc1-c1cccc2c1CC[C@@H]2Oc1cc(OCc2cc(C#N)cc(C#N)c2)c(CN[C@H]2CCCCNC2=O)cc1Cl` returned a 50% inhibitory concentration (IC50) of 5 to 500 nM.

Molecule `CCOc1cc(O[C@H]2CCc3c(-c4cccc(OCCCN5CCC5(C)C)c4C)cccc32)c(Cl)cc1CN(C)CCC(=O)OC(C)(C)C` displayed an IC50 of 500 to 20000 nM.

As to `C[C@@](CO)(NCc1cc(Cl)c(O[C@H]2CCc3c(-c4cccc(OCCCN5CCC5)c4Cl)cccc32)cc1OCc1cncc(C#N)c1)C(=O)O`, the IC50 is < 5 nM.

`Cc1c(OCCCN2CCC[C@H]2CO)cccc1-c1cccc2c1CC[C@@H]2Oc1cc(OCc2cncc(C#N)c2)c(CN[C@H](C(=O)O)[C@@H](C)O)cc1Cl`: the IC50 is < 5 nM.

For `N#Cc1cncc(COc2cc(O[C@H]3CCc4c(-c5cccc(OCCCN6CC7(C6)CC(F)(F)C7)c5Cl)cccc43)c(Cl)cc2CN[C@H]2CCC[C@@H]2O)c1`, the 50% inhibitory concentration (IC50) was < 5 nM.

As to `N#Cc1cncc(COc2cc(O[C@H]3CCc4c(-c5cccc(OCCCN6CCC(O)CC6)c5Cl)cccc43)c(Cl)cc2CNCC2CCC(=O)N2)c1` (stereo partly shown), the IC50 is < 5 nM.

Take `N#Cc1cncc(COc2cc(O[C@H]3CCc4c(-c5cccc(OCCCN6CCC(O)CC6)c5Cl)cccc43)c(Cl)cc2CNC[C@H]2CCC(=O)N2)c1`: the IC50 was < 5 nM.

`N#Cc1cncc(COc2cc(O[C@H]3CCc4c(-c5cccc(OCCCN6CCC(F)CC6)c5Cl)cccc43)c(Cl)cc2CN[C@@H]2CCOC[C@@H]2F)c1` displayed a half-inhibitory concentration (IC50) of 5 to 500 nM.

Consider `C[C@@H](O)[C@H](NCc1cc(Cl)c(O[C@H]2CCc3c(-c4cccc(OCCCN5CC(O)C5)c4Cl)cccc32)cc1OCc1cncc(C#N)c1)C(N)=O`, for which the IC50 is < 5 nM.

For `C[C@@](CO)(NCc1cc(Cl)c(O[C@@H]2c3cccc(-c4cccc(OCCCN5CC(O)C5)c4Cl)c3C[C@@H]2F)cc1OCc1cncc(C#N)c1)C(=O)O`, the 50% inhibitory concentration (IC50) is < 5 nM.

As to `CC(C)OC(=O)[C@](C)(CO)NCc1cc(Cl)c(O[C@H]2CCc3c(-c4cccc(OCCCN5CC(O)C5)c4Cl)cccc32)cc1OCc1cncc(C#N)c1`, the 50% inhibitory concentration (IC50) was < 5 nM.

Turning to `Cc1c(OCCCN2CCC(O)CC2)cccc1-c1cccc2c1CC[C@@H]2Oc1cc(OCCCN2CC[C@H](O)C2)c(CN[C@@H]2CCCC[C@@H]2O)cc1Cl`, the IC50 was < 5 nM.

`CN1CCC(COc2cccc(-c3cccc4c3CC[C@@H]4Oc3cc(OCc4cncc(C#N)c4)c(CN[C@H]4CCC(=O)NC4)cc3Cl)c2Cl)C1=O` (stereo partly shown) returned an IC50 of 5 to 500 nM.

`Cc1c(OCCCN2C3CCC2CC(O)C3)cccc1-c1cccc2c1CC[C@@H]2Oc1cc(OCc2cncc(C#N)c2)c(CNCC2CCC(=O)N2)cc1Cl` (stereo partly shown): the half-inhibitory concentration (IC50) was < 5 nM.

Take `C[C@@](CO)(NCc1cc(Cl)c(O[C@H]2CCc3c(-c4cccc(OCCCN5CCC(O)CC5)c4F)cccc32)cc1OCc1cncc(C#N)c1)C(=O)O`: the IC50 is < 5 nM.

As to `CCCC(CO)(NCc1cc(Cl)c(O[C@H]2CCc3c(-c4cccc(OCCCN5CC(O)C5)c4Cl)cccc32)cc1OCc1cncc(C#N)c1)C(=O)O` (stereo partly shown), the 50% inhibitory concentration (IC50) was < 5 nM.

With `CCOc1cc(O[C@H]2CCc3c(-c4cccc(OCCCN(C)C(C)C)c4C)cccc32)c(Cl)cc1CNC[C@@H]1CCC(=O)N1`, the concentration for half-maximal inhibition (IC50) is < 5 nM.

Regarding `CCOc1cc(O[C@H]2CCc3c(-c4cccc(OCCCN5CCCC5(C)C)c4C)cccc32)c(Cl)cc1CNC[C@@H]1CCC(=O)N1` [drawing 395], the concentration for half-maximal inhibition (IC50) is < 5 nM.

Regarding `CC1(F)CCN(CCCOc2cccc(-c3cccc4c3CC[C@@H]4Oc3cc(OCc4cncc(C#N)c4)c(CN4CC5(C4)NC(=O)NC5=O)cc3Cl)c2Cl)CC1`, the IC50 fell in the range of 5 to 500 nM.

In turn, `N#Cc1cc(C#N)cc(COc2cc(O[C@@H]3c4cccc(-c5cccc(OCCCN6CC(F)C6)c5Cl)c4C[C@H]3F)c(Cl)cc2CNC[C@H]2CCC(=O)N2)c1` showed an IC50 of 5 to 500 nM.

On to `Cc1c(OCCCN2CCC(C)(F)CC2)cccc1-c1cccc2c1CC[C@@H]2Oc1cc(OCc2cncc(C#N)c2)c(CNC[C@@H]2CCC(=O)N2)cc1Cl`, for which the IC50 was < 5 nM.

`N#Cc1cncc(COc2cc(O[C@H]3CCc4c(-c5cccc(OCCCN6CCC(F)CC6)c5Cl)cccc43)c(Cl)cc2CN[C@@H]2CC[C@H]2O)c1`: the IC50 is < 5 nM.

Regarding `Cc1c(OCCCN2CCC(O)CC2)cccc1-c1cccc2c1C[C@H](F)[C@@H]2Oc1cc(OCc2cncc(C#N)c2)c(CN[C@@](C)(CO)C(=O)O)cc1Cl`, the IC50 is < 5 nM.

As to `N#Cc1cncc(COc2cc(O[C@H]3CCc4c(-c5cccc(OCCCN6CC7(CC(O)C7)C6)c5Cl)cccc43)c(Cl)cc2CN[C@H]2CCC[C@H]2O)c1`, the IC50 was < 5 nM.

With `N#Cc1cc(C#N)cc(COc2cc(O[C@H]3CCc4c(-c5cccc(OCCCN6CCC(F)CC6)c5Cl)cccc43)c(Cl)cc2CN[C@H]2CCC(=O)NC2)c1`, the IC50 was 5 to 500 nM.

For `CCOc1cc(O[C@H]2CCc3c(-c4cccc(OCCCN5CCC5(C)C)c4C)cccc32)c(Cl)cc1CN(C)CCCC(=O)O`, the IC50 is < 5 nM.

On to `Cc1c(OCCCN2CCC(F)CC2)cccc1-c1cccc2c1CC[C@@H]2Oc1cc(OCc2cncc(C(N)=O)c2)c(CN(C)CCC(=O)O)cc1Cl`, for which the IC50 was < 5 nM.

Source of the values: patent publication US10919852B2, “Immunomodulator compounds” (CHEMOCENTRYX, INC., priority 2017, dated 2021).
